Consider three compounds from article PMC7730235, “Discovery of a Novel Class of Covalent Dual Inhibitors Targeting the Protein Kinases BMX and BTK” (International Journal of Molecular Sciences, 2020).

Structures are written as SMILES. pIC50: −log10 of the molar value.

One data set has as its system glutathione (GSH). As to the kind of experiment: Glutathione reactivity / stability against GSH. The following applies: glutathione (GSH) in PBS buffer, pH 7.4, 5 mM GSH, read-out: half-life (t1/2) against glutathione (converted). In kind it is physicochemical. As for the experimental part:
A total of 5 µL of a 10 mM compound stock solution in DMSO were added to 5 µL of a 4 mM Indoprofen solution in PBS as internal standard. The mixture was diluted with PBS buffer to a total volume of 1 mL of component A. Additionally, a freshly prepared solution of 10 mM GSH in PBS buffer was used as component B. A total of 250 µL of each component was mixed and immediately subjected to HPLC analysis for t^0 measurement. The probes were stored at 40 °C in between the respective injections. t1/2 was determined by plotting natural logarithm of AUC/AUC0 against time.

The next data set deals with T1, MKK7 (Homo sapiens, UniProt O14733).
T1 construct: purchased Reaction Biology Corporation
T1 sequence (O14733 1-419): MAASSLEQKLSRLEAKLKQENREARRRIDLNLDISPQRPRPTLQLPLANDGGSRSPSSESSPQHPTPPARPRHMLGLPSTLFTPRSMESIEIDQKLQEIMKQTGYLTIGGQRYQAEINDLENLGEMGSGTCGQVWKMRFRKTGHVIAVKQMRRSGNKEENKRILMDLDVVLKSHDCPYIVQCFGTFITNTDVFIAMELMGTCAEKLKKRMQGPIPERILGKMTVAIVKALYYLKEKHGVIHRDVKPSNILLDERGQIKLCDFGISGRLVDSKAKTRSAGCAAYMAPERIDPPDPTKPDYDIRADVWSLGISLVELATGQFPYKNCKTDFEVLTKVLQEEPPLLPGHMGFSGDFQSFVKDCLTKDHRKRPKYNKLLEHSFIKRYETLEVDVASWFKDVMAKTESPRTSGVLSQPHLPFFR
In words: Radiometric kinase assay (Reaction Biology HotSpot). It is filed as biochemical. The settings on record: read-out: Residual Activity @ 200 nM, MKK7. As for the experimental part:
(§1) If not mentioned differently, in vitro profiling of compounds was performed at Reaction Biology Corporation using the HotSpot™ assay platform.

A further data set concerns the target T2, TXK (Homo sapiens, UniProt P42681).
T2 construct: purchased Reaction Biology Corporation
T2 sequence (P42681 1-527): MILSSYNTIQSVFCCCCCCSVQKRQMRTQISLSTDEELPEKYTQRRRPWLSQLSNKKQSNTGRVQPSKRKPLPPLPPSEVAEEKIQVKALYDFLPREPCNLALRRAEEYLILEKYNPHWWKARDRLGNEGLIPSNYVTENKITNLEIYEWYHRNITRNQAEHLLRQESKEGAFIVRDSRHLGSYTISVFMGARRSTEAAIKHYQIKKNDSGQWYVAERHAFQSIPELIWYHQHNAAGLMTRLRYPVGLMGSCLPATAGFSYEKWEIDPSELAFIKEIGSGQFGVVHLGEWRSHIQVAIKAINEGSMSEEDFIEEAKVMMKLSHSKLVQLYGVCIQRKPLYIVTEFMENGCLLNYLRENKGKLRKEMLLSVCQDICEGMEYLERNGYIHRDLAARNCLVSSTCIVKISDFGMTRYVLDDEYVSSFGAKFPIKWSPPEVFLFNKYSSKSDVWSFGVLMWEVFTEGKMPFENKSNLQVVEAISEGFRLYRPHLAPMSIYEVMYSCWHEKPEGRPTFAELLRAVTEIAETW
The description is as above. In kind it is biochemical. The settings on record: radiometric HotSpot, five-dose singlicate, [ATP] = 10 μM. As for the experimental part: as §1

In the next data set the target is T3, JAK3 (Homo sapiens, UniProt P52333).
T3 construct: purchased Reaction Biology Corporation
T3 sequence (P52333 1-1124): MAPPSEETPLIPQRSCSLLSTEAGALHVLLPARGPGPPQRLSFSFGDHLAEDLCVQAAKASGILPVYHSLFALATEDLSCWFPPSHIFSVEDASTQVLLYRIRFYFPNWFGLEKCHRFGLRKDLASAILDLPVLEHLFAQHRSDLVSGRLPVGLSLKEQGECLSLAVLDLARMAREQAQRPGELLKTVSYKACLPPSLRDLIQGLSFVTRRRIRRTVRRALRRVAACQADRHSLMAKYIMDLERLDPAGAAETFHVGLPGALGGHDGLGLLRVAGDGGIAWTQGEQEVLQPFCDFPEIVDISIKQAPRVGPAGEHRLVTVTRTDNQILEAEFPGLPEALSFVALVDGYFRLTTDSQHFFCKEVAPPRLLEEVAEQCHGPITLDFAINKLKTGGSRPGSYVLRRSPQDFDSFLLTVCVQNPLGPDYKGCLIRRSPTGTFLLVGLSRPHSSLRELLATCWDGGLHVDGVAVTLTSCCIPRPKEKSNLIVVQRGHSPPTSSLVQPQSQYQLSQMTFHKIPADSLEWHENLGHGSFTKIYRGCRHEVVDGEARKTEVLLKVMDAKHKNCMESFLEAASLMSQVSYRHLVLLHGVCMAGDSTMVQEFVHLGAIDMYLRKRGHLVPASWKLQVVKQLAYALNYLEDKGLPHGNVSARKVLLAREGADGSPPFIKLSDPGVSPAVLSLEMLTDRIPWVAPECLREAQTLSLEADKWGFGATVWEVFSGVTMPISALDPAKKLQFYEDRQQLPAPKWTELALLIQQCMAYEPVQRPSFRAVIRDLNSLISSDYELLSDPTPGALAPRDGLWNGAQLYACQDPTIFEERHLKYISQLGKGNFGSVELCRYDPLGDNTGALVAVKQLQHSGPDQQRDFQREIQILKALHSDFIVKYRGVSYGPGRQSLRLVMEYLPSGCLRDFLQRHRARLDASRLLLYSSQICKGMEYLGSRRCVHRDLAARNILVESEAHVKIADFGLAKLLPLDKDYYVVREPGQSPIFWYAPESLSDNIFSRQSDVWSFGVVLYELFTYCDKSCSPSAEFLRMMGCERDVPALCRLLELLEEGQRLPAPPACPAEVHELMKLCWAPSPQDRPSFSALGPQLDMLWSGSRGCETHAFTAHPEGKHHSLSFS
Described as above. It is filed as biochemical. As for the experimental part: as §1

The next data set addresses T4, HER2 (Homo sapiens, UniProt P04626).
T4 construct: purchased Reaction Biology Corporation
The description is as above. In kind it is biochemical. The settings on record: radiometric HotSpot, five-dose singlicate, [ATP] = 10 μM. As for the experimental part: as §1

The target of another data set is T5, ITK (Homo sapiens, UniProt Q08881).
T5 construct: purchased Reaction Biology Corporation
T5 sequence (Q08881 1-620): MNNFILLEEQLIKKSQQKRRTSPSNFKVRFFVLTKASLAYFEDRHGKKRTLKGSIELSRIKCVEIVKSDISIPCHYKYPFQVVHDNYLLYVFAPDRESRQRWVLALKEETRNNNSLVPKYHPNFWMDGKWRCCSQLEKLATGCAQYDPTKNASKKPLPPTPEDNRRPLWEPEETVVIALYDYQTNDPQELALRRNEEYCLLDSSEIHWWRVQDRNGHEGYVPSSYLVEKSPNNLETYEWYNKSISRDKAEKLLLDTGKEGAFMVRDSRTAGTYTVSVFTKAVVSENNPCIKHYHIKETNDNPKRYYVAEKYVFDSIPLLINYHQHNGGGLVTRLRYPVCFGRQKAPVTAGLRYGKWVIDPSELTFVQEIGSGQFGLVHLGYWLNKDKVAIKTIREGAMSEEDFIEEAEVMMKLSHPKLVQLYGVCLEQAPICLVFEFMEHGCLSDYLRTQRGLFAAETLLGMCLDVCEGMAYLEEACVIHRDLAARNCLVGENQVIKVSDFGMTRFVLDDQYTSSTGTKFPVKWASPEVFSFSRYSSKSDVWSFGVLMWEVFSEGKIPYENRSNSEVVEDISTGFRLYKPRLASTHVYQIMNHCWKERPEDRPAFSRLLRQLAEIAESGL
Described as above. The following applies: read-out: Residual Activity @ 200 nM, ITK. It is filed as biochemical. As for the experimental part:
as §1

The next data set has as its target T6, BLK (Homo sapiens, UniProt P51451).
T6 construct: purchased Reaction Biology Corporation
Described as above. It is filed as biochemical. The following applies: radiometric HotSpot, five-dose singlicate, [ATP] = 10 μM. As for the experimental part:
as §1

The next data set addresses T7, HER4 (Homo sapiens, UniProt Q15303).
T7 construct: purchased Reaction Biology Corporation
Described as above. It is filed as biochemical. The following applies: radiometric HotSpot, five-dose singlicate, [ATP] = 10 μM. The protocol: as §1

The next data set concerns the target T8, TEC (Homo sapiens, UniProt P42680).
T8 construct: purchased Reaction Biology Corporation
T8 sequence (P42680 1-631): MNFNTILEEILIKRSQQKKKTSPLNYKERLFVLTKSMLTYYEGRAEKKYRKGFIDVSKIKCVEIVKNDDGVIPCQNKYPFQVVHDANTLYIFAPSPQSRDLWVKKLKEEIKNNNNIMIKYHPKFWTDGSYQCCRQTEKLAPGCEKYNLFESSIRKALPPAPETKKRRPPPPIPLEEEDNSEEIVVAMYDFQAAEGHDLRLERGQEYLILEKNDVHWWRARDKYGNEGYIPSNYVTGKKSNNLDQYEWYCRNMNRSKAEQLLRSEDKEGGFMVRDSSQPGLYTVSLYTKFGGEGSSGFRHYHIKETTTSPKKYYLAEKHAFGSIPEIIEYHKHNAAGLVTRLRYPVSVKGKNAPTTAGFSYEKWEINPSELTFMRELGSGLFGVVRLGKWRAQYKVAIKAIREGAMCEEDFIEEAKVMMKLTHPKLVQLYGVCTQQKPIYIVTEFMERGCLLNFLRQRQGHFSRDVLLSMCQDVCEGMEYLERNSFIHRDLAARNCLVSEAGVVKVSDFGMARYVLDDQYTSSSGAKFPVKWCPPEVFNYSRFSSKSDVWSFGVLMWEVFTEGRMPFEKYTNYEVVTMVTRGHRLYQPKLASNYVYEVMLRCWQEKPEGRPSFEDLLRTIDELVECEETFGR
The data set is described as above. The settings on record: radiometric HotSpot, five-dose singlicate, [ATP] = 10 μM. In kind it is biochemical. As for the experimental part:
as §1

A further data set has as its target T9, EGFR (Homo sapiens, UniProt P00533).
T9 construct: purchased Reaction Biology Corporation
The data set is described as above. It is filed as biochemical. The following applies: radiometric HotSpot, five-dose singlicate, [ATP] = 10 μM. The protocol: as §1

The target of another data set is T10, BMX (Homo sapiens, UniProt P51813).
T10 construct: purchased Reaction Biology Corporation
T10 sequence (P51813 1-675): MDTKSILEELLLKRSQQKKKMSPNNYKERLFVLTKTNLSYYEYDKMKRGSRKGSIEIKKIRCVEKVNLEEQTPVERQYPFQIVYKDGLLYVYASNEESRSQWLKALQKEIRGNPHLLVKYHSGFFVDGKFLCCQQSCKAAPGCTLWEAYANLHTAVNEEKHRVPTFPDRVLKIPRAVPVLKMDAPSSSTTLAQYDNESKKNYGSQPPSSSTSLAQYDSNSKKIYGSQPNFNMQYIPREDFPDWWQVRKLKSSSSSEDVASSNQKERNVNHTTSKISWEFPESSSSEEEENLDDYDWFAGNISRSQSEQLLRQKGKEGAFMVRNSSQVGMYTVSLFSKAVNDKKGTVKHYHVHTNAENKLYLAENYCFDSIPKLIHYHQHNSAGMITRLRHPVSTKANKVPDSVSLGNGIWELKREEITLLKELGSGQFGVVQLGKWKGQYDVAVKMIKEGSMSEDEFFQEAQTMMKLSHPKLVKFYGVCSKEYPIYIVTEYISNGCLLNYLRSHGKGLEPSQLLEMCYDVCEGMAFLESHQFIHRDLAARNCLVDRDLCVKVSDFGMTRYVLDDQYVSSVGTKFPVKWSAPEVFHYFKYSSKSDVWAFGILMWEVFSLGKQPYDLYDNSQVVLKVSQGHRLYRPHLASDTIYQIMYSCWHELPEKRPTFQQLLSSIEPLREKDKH
The following applies: cited from earlier work.

In general, pIC50 refers to the IC50 on a negative log10 scale, so that one unit is a factor of ten. Read a low pIC50 as a large IC50.

T9 sequence (P00533 25-1210): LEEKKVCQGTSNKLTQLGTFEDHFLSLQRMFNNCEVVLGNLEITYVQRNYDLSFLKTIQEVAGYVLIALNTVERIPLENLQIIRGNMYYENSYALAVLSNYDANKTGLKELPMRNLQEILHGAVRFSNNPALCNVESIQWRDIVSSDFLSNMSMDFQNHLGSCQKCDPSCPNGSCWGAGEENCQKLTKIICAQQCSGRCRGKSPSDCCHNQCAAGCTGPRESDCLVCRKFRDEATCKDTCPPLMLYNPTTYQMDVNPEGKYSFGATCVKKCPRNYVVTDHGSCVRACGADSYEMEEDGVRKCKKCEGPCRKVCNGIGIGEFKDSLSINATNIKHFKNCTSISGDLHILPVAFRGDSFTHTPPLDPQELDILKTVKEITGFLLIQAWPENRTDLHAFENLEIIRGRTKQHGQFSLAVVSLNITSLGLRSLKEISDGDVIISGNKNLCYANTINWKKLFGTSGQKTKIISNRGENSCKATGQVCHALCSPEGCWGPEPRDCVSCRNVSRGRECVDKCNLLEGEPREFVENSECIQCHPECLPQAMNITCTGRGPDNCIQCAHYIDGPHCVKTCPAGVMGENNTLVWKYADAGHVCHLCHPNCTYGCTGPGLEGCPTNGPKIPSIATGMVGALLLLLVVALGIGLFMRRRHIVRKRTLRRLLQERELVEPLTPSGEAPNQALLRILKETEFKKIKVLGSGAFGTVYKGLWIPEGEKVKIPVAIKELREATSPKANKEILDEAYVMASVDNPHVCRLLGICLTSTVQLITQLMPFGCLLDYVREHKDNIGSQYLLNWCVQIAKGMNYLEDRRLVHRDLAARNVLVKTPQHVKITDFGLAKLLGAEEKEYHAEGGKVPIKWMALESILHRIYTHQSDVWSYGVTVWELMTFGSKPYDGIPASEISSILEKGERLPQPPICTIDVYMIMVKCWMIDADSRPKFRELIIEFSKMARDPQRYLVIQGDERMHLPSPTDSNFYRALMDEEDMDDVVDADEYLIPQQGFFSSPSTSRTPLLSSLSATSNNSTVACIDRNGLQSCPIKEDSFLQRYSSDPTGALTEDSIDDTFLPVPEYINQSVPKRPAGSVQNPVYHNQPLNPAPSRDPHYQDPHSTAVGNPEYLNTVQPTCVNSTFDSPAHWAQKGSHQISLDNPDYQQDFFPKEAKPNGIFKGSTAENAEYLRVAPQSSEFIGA
T4 sequence (P04626 23-1255): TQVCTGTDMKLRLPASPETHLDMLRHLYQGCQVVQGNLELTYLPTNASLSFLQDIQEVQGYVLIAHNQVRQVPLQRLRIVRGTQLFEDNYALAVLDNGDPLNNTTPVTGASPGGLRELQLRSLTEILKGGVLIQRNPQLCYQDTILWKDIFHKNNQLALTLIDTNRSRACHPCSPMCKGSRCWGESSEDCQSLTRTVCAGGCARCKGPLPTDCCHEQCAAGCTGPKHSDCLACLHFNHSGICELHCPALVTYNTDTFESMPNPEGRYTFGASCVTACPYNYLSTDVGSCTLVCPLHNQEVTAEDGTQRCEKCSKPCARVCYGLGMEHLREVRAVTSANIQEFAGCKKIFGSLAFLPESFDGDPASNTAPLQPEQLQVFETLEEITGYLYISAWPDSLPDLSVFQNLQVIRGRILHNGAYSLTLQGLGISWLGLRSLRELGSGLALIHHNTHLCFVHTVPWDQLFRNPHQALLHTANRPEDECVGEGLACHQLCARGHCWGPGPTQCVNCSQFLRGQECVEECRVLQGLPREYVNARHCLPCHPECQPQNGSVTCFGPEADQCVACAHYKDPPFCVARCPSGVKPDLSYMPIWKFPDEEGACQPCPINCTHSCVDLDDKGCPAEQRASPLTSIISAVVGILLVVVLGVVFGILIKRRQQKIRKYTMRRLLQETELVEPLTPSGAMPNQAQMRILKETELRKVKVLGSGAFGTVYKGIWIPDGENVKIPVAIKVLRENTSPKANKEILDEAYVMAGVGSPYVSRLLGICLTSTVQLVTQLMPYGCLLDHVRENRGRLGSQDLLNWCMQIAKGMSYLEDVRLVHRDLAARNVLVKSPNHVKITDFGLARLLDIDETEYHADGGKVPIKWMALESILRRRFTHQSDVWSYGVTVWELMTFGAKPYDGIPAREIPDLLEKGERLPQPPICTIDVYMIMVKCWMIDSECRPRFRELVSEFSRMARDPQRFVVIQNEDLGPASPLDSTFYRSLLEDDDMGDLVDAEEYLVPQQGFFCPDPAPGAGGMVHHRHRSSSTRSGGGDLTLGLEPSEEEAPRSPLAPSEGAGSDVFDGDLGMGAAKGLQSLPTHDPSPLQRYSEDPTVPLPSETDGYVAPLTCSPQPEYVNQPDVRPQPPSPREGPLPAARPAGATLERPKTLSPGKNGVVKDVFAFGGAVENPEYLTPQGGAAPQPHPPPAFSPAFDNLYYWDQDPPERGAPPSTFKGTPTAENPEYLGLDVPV
T7 sequence (Q15303 26-1308): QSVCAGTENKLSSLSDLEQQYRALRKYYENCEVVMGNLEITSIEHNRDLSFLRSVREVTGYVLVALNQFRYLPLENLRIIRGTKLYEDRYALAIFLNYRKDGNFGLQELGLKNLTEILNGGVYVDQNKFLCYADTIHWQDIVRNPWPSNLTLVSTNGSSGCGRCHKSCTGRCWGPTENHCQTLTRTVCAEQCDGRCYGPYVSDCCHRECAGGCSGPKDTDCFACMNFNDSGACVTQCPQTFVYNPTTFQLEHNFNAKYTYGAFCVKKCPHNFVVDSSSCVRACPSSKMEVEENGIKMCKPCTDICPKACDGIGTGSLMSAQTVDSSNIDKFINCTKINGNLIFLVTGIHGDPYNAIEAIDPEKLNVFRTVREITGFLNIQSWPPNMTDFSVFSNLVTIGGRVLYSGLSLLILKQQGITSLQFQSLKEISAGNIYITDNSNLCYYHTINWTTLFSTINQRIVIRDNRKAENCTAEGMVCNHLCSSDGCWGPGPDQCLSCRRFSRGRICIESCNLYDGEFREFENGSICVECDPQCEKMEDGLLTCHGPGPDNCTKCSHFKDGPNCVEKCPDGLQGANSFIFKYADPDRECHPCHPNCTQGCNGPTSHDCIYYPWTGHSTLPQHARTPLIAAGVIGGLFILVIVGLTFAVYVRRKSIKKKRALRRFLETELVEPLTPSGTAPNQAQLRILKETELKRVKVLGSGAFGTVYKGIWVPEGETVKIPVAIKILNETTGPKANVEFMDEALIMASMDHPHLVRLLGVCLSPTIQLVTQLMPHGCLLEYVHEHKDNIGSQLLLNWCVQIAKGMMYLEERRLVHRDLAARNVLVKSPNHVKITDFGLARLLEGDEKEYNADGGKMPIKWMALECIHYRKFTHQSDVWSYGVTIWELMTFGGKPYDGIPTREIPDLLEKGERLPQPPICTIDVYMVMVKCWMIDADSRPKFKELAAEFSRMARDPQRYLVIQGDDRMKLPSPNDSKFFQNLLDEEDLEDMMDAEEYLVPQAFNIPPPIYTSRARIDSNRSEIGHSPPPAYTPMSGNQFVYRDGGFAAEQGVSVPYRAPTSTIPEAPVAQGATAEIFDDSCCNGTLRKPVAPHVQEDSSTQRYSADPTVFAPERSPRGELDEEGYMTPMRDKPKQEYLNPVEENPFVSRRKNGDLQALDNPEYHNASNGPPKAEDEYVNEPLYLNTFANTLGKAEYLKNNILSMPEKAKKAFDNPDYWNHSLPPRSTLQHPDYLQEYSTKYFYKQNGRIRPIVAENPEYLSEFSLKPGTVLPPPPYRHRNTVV
T6 sequence (P51451 whole entry): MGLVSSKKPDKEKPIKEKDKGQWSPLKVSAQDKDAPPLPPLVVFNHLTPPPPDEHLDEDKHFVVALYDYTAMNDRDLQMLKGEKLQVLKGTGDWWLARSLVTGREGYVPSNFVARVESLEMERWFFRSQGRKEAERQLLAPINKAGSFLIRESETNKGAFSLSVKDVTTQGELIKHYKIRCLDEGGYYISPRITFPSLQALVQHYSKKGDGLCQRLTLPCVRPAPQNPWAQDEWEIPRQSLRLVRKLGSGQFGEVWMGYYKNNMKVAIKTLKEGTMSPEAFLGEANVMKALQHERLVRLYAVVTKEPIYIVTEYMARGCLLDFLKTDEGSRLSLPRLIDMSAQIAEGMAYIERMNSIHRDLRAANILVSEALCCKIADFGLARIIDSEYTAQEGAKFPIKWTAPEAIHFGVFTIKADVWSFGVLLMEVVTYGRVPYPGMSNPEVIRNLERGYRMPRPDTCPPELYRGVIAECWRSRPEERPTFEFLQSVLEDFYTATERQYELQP

Regarding `CN(C)C/C=C/C(=O)Nc1cc2c(Nc3ccc(F)c(Cl)c3)ncnc2cc1O[C@H]1CCOC1` [Afatinib, reference compound], in the data set on glutathione (GSH), the half-life at 25 µM is 45.6 min.
In the case of `C=CC(=O)Nc1cccc(-c2c[nH]c3ncc(NC(=O)C4CCCC4)cc23)c1` [Compound 12a, N-(3-(3-acrylamidophenyl)-1H-pyrrolo[2,3-b]pyridin-5-yl)cyclopentanecarboxamide], the remaining activity at 0.2 µM at MKK7 was determined as 100%; at JAK3 (read-out: Residual Activity @ 200 nM, JAK3) it was 94.5%; on ITK, 98.5%. In addition, the pIC50 is 7.89 against TXK; 5.87 on JAK3 (radiometric HotSpot, five-dose singlicate, [ATP] = 10 μM); 6.21 on HER2; 7.28 against BLK; 6.97 against HER4; 7.51 on TEC. At EGFR, the negative logarithm of the IC50 (pIC50) was 6.80.
On to `C=CC(=O)Nc1cc(C)cc(-n2c(=O)ccc3cnc4cc(-c5ccc(NS(C)(=O)=O)cc5)ccc4c32)c1` [JS25], for which the “kinact/KI BMX” value on BMX is 1.9e+07 M⁻¹ s⁻¹.
